Experimental data published in US20260216205A1, “SYSTEMS AND METHODS FOR TREATING HEART FAILURE WITH PRESERVED EJECTION FRACTION” (INVIVOSCIENCES INC., priority 2023, published 2026).
“Also recorded” adds a separate entry of the source.

Key:
alpha-1 adrenoceptors = conditions: read-out: IC50, affinity for alpha-1 adrenoceptors; cited from earlier work
[1] = tested on: human micro-heart tissues (NuHeart); experiment: Mature NuHeart micro-heart tissue with and without TGFβ: length-tension, contractile force, ISO response, αSM actin; type: cell-based
Description: FIG. 11C-11F graphically show length-tension relationships of cardiac systolic ([…]) and diastolic (FIG. 10E, FIG. 10F) curves, monitored>30 days with and without TGFβ (10 ng/mL).
FIG. 11G is a bar graph illustrating that the positive inotropic response to ISO ([…]) were compared with and without TGFβ (bars=s.d., n=7) at the end of 35-day tissue development.
FIG. 11I-11J show profiles of cardiac contractile force with and without TGFβ.
A semi-automated, multi-point quality control (QC) production-process fabricated mature micro-heart tissues in 96-well format. The patient-derived (or gene-edited) iPSCs that were passed the QC test of pluripotency and purity go through the next step. This robust protocol of iPSC differentiation produced cardiomyocytes and non-muscle cells. Various parameters were optimized to produce highly purified (>95%) cardiomyocytes and cardiac non-muscle cells. Various differentiation techniques, a culture robot ACTRO™, and culture media may be used for cardiomyocyte (CM) differentiation and maintenance development and validation. FIGS. 9A-9D show mass-produced micro-heart tissues and their mature phenotype, which were assessed for their response to various positive inotropic and chronotropic agents (FIGS. 10A-10D). To grow mature micro-heart tissue, physiological (15% strain=~2.13 μm sarcomere length) stretching cycles were applied, in addition to constant bi-phasic, low energy (5-10 V, 1 ms duration) electrical stimulation, and maturation medium containing appropriate concentrations and combinations of fatty acids and other factors, including triiodothyronine, dexamethasone, taurine, creatine, and L-carnitine were used.
Human micro-heart tissues cultured for 35 days with electrical stimulation matured and loose its spontaneous beating. Myocardial fibrosis is more prevalent in HFpEF than in control, and Transforming growth factor beta (TGFβ) is a major profibrotic factor. […] The elevated diastolic stiffness and loss of contractile reserve are common in HFpEF patients. Some HFpEF patients, including hypertrophic cardiomyopathy, show a hypercontractile phenotype. A TGF-β signaling pathway in the pathogenesis of diabetes mellitus (DM) is well-known. Moreover, in rat models, the presence of diabetes led to the induction of a fetal gene program, typically seen in the setting of TGF-β over-expression and hypertrophy. Therefore, human induced pluripotent stem cell (iPSC) derived micro-heart tissue (NuHeart™ micro-heart tissue) will be used with TGFβ-treatment as a base of the proposed studies.
A force probe stretching approach was used to record the length-tension relationship to analyze cardiac contractility and stiffness of micro-heart tissue. Micro force-transducers (FIG. 11) of the mechanical assay device, Palpator™, measured resistance forces that were required to stretch micro-heart tissue growing in 96-well plates. As the probe moved down by a motorized arm, samples' cardiac contractile and baseline forces were measured at different tissue lengths. Sarcomere length was calibrated to strain (% of stretch over original sample length) according to a published protocol (Asnes, C. F. et al. Biophys. J. 2006. 91(5): pp. […]). (Fourier analysis of sarcomere patterns in fixed micro-heart tissue). In addition, other biological indicators such as calcium transients and action potential are measured using biological indicator dyes and high throughput microplate readers (FIGS. 13A-C). For example, micro-heart tissue with cardiomyocytes derived from gene-edited iPSC-derived cardiomyocytes was fabricated with a cardiac troponin T R92Q mutation (familial hypertrophic cardiomyopathy, i.e., “[…]”).

[2] = tested on: tissue constructs reconstituted with human fibroblasts / myofibroblasts; experiment: Biomechanical phenotyping assay: isometric force on stretched bioengineered tissue constructs; type: cell-based
Description: Fasudil (FIG. 1) is a small molecule inhibitor of Rho-kinase (ROCK) that regulates its downstream signal transduction pathways and biological activities, including smooth muscle cells' contractility. InvivoSciences's biomechanical phenotyping assay recorded isometric force by stretching bioengineered tissue-constructs (see, U.S. Pat. No. 10,732,174). The tissue constructs were reconstituted with human fibroblasts that recapitulate connective tissues. Those tissue constructs reconstituted with myofibroblasts recapitulate connective tissue developing fibrosis.

[3] = tested on: human micro-heart tissues (iPSC-derived cardiomyocytes and non-muscle cells, mainly fibroblasts); experiment: Biomechanical assay (length-tension) on micro-heart tissue constructs; type: cell-based; conditions: for micro-heart tissue construct's stiffness (diastolic/passive stiffness): FIG. 7B
Description: The micro-heart tissue fabrication process produced micro-heart tissues using human cardiomyocytes derived from induced pluripotent stem cells (iPSCs) and non-muscle cells, mainly fibroblasts. Therefore, fasudil is a promising drug candidate to reduce elevated diastolic stiffness of patients with heart failure with preserved ejection fraction (HFpEF). The development of fibrosis in the heart is observed in various types of cardiomyopathies, and heart failure (HF). Myocardial interstitial fibrosis, for example, contributes to left ventricular dysfunction leading to the development of heart failure. Fibrotic myocardium becomes stiffer than healthy tissue to develop diastolic dysfunction. Fasudil targets Rho-kinase (ROCK) that regulates the activity of non-muscle myosin independent of calcium homeostasis. Human cardiac fibroblasts express ROCK1 and ROCK2, which both regulate non-muscle cell contractility similarly. The reduction of ROCK2 had notable effects on the profibrotic gene (FIGS. 7A-B) and protein expression (FIGS. 7A-B).
A force probe stretching approach was used to record the length-tension relationship to analyze cardiac contractility and stiffness of micro-heart tissue. Micro force-transducers (FIG. 11) of the mechanical assay device, Palpator™, measured resistance forces that were required to stretch micro-heart tissue growing in 96-well plates. As the probe moved down by a motorized arm, samples' cardiac contractile and baseline forces were measured at different tissue lengths. Sarcomere length was calibrated to strain (% of stretch over original sample length) according to a published protocol (Asnes, C. F. et al. Biophys. J. 2006. 91(5): pp. 1800-1180). (Fourier analysis of sarcomere patterns in fixed micro-heart tissue). In addition, other biological indicators such as calcium transients and action potential are measured using biological indicator dyes and high throughput microplate readers (FIGS. 13A-C). […]

[4] = tested on: engineered heart tissues (EHTs) derived from human induced pluripotent stem cells; experiment: Long-term fasudil effects on engineered heart tissues (EHTs) with and without TGFβ, stress versus strain; type: cell-based
Description: FIGS. 16A-16D graphically illustrate the long-term effects of fasudil. The rates of stretch relative to the unstretched tissue length are depicted as strain (error bar=standard deviation of error). Number of samples are 2 or 4 in each condition.
To exemplify this patient stratification process, engineered heart tissues (EHTs) were prepared, the tissues containing cardiac fibroblasts (10% of cardiomyocytes at fabrication) derived from human induced pluripotent stem cells (iPSCs). Five days post-fabrication, one half of the engineered heart tissues (EHTs) was cultured regularly (FIG. 16A and FIG. 16C), and the other half was treated with 1 ng/mL TGFβ (FIG. 16B and FIG. 16D). […] The effect was clearly represented in the elevated passive stress-strain curve and its slope represented by the closed circles (0 μM fasudil data points) in FIG. 16C and FIG. 16D.
After 15 days, the EHTs, both with and without TGFβ treatment, were administered fasudil at concentrations of […] (FIGS. 16A-16D). […] However, by day 29, fasudil reduced cardiac contractility in EHTs, irrespective of TGFβ treatment.

[5] = tested on: engineered heart tissues (EHTs) derived from human induced pluripotent stem cells; experiment: as above; type: cell-based; conditions: short-term administration (less than 24 hours)
[6] = intravenous formulations; Satoh et al., Life Sci 2001; cited from earlier work
[7] = NuHeart micro-heart tissue without TGFβ
[8] = long-term administration (3-14 days)
[9] = TGFβ-treated micro-heart (10 ng/mL, monitored >30 days)

## CN1CCN(C2=Nc3cc(F)ccc3Cc3ccccc32)CC1 [Fluperlapine]
alpha-1 adrenoceptors
  IC50: ~10 nM

## CC(C)NCC(O)c1ccc(O)c(O)c1 (stereo not shown) [ISO, isoproterenol]
[1]; [7]
  contractile amplitude: increased
  duration of contraction (chrotropic response): shortened
[1]; after isoproterenol (ISO) treatment
  response of mature micro-heart tissues: positive inotropic and chronotropic responses
[1]; micro-heart tissue with TGFβ
  response of contractile force to ISO: blunted response

## O=S(=O)(c1cccc2cnccc12)N1CCCNCC1 [fasudil, Fasudil]
[2]
  contractility of tissue constructs: reduced
  tissue stiffness of tissue constructs: reduced
[3]; FIG. 7A
  cardiac contractility of the micro-heart tissues: did not change
[3]
  micro-heart tissue construct's stiffness (diastolic/passive stiffness): reduced the micro-heart tissue construct's stiffness dose-dependently
[3]; listed as Fasudil
  micro-heart tissue construct's stiffness (diastolic/passive stiffness): reduced
[4]; 10 μM fasudil, by day 29
  cardiac contractility in TGFβ-treated EHTs: substantially reduce
[4]; TGFβ-treated (1 ng/mL) EHTs
  effect on passive stiffness, TGFβ-treated tissues versus untreated: more pronounced effect
[4]; both with and without TGFβ (1 ng/mL) treatment, fasudil 1, 3, 10 µM
  passive stiffness of EHTs: effectively reduced
[4]; by day 29, irrespective of TGFβ treatment
  cardiac contractility in EHTs: reduced
[4]; [8]
  cardiac contractility in EHTs: reduce
  passive stiffness in EHTs: reduce
[4]; one day after treatment (data not shown)
  impact on cardiac contractility: less significant
[5]
  cardiac contractility in EHTs: without significantly affecting
  passive stiffness in EHTs: effectively reduced
[6]
  plasma concentration: approximately 0.36 μM

## Transforming growth factor beta [TGFβ]
[4]; 1 ng/mL TGFβ from five days post-fabrication, 0 μM fasudil
  passive stiffness of EHTs: increased
[1]; TGFβ treated sample, Western blot
  αSM actin expression: increased expression; also recorded: elevated
[1]; [9]
  cardiac contractility of micro-heart: increasing
  diastolic stress (stiffening) of micro-heart: increasing
[1]; chronic TGFβ treatment
  ISO-induced positive inotropic and chronotropic responses: impaired
